The nature of series [1]: pharmacokinetics of Peptide T. The settings on record: following administration in vivo. The text has this:
Initial research in this area was focused on the CNS for two reasons: a high concentration of CD4 molecules was found on neurons and one of the major effect of HIV infection is the development of neurocognitive dysfunction.
1. Macrophages may be more sensitive to Peptide T than are T cells, since T cells receive many more potential activating signals than the CD4/MHC II interaction. Thus macrophages may be down regulated by Peptide T administration on the first day of in vitro culture inhibiting their ability to present mitogens and antigens to T cells. B cells can act as APC in place of macrophages when presenting antigen, but not when presenting mitogens which are antigen non-specific (explaining the results of Table III). Resting B cells are resistant to Peptide T as they are CD4 negative. In the presence of a single dose of Peptide T, they could present antigen to T cells allowing proliferation of PBMC in response to antigen. When Peptide T is given on a daily basis in cultured T cells, which may be less sensitive to the effects of Peptide T, then macrophages may be inhibited. Daily administration of Peptide T in vivo, may not function as it does on a daily basis in vitro, since the half life of Peptide T in vivo is shorter than in vitro. In vitro serum supplements are heat inactivated to destroy proteolytic enzymes which actively degrade Peptide T in vivo. […]

Series [2] can be described thus: tolerability of Peptide T therapy. Format: in vivo, human. The settings on record: patients. An excerpt:
Cyclosporine is an anti-inflammatory drug that inhibits lymphocyte proliferation by inhibiting IL-2 and IFN γ gene transcription by binding to and inactivating cyclophilin, an isomerase required for signal transduction (Halloran et al, Clin. Biochem. 24 3-7 (1991)). […] Cyclosporine induced side effects include renal tubular atrophy, nephrotoxicity, hypertension, hirsutism, gingival hypertrophy, tremors, convulsions and paresthesia (Briggs J.D. Immunol. Lett. 29 89-94 (1991)).

A further series relates to PBMC. The series is described as follows: mitogen-induced lymphoproliferation (Example 17, 20). Format: cell-based, human. The settings on record: Con A-induced proliferation measured daily, 10^-9 M; FIG. 3. Here is the method:
Concanavalin A (Con A), pokeweed mitogen, (PWM) and phytohaemagglutin-P (PHA-P) were obtained from Sigma Chemical Co. (St. Louis, Mo., U.S.A.). Peptide T was synthesised by Carlbiotech Ltd (Copenhagen, Denmark) and supplied as the chloride salt at 8.5 mg/ml in 0.9% benzyl alcohol as a preservative and was stored at 4° C. Peptide T was diluted to working solutions in culture medium (RPMI). Dilute solutions of Peptide T were prepared fresh from stock Peptide T for each experiment. ^3 H-thymidine (5 Ci/mmol) was obtained from Amersham.
Isolation of PBMC: Whole blood from healthy, adult volunteers was drawn into heparin and peripheral blood mononuclear cells (PBMC) isolated by density gradient centrifugation on HISTOPAQUE™ (Sigma Chemical Co). PBMC were removed from the interface, washed three times in RPMI containing gentamycin (100 μg/ml) and resuspended to 1×10^6 PBMC/ml in RPMI containing 10% foetal bovine serum and gentamycin. 10^5 PBMC were cultured in the presence of 100 μl of mitogen suspension in 96 well plates. […] The amount of incorporated ^3 H-thymidine was determined using a BECKMAN™ LS8000 liquid scintillation counter and proliferation expressed as either counts per minute (cpm) or as a proliferation index (PI). […]
10^5 PBMC were cultured in the presence of PWM, Con A or PHA (see Example 17). […] Data were analysed by two sample ANOVA using 95% confidence limits.

For series [3], the system named is MO/MAC cytotoxicity against K562 target cells. As to the kind of experiment: macrophage cytotoxicity assay. In kind it is cell-based, human. The settings on record: Peptide T added with target cells (step 2) or every day; FIG. 7. Here is the method: The MO/MAC cytotoxicity assay is a two step assay. After isolation of adherent cells (mainly MO/MAC) from PBMC, MO/MAC are activated by lymphokines (including IFN gamma and LPS. Subsequent to washing which removes activators, ^3 H-thymidine labelled K562 target cells were added to activated MO/MAC and incubated for 3 days. The degree of cytotoxicity was proportional to the amount of radioactive label released into the culture supernatant, is shown in the following scheme: […]

For series [4], the system named is Mice bearing Meth A ascites tumours. The series is described as follows: LPS toxicity in Meth A ascites tumour bearing mice. Format: in vivo, mouse. As to conditions: 100 μg LPS s.c. + 1 mg analogue; for % mice surviving 41 hours: LPS + BSA 60; for % mice with diarrhoea at 19 hrs / % mice with exudate at 19 hrs: LPS + BSA 100. The procedure:
Mice bearing Meth A ascites tumours were given 100 μg LPS subcutaneously with either bovine serum albumin (BSA) or peptide T analogue (504 or 505, 1 mg). The number of animals showing signs of LPS toxicity (diarrhoea, exudate from the eyes and general level of activity) in each group was recorded at 19, 24 and 41 hours after injection. At the completion of the experiment the number of surviving animals was recorded (see Table II below) and the survivors bled for later determination of TNF, IL-1 , IL-6 and RNI levels.

For series [5], the system named is human neutrophils. The series is described as follows: TNF-induced neutrophil chemiluminescence. In kind it is cell-based. As to conditions: FIG. 13. The procedure:
(§1) Neutrophils were isolated from whole blood from healthy blood donors. Separation was achieved by the rapid-single-step method of centrifugation of whole blood on FICOLL-HYPAQUE™. These were >99% viable and usually >98% pure.
TNF was a recombinant product produced in E. coli. Peptide T and analogue 505 (D-Ser-Ser-D-Thr-Thr-D-Thr-Thr-Tyr-D-Thr) were resuspended in Hank's Balanced Salt Solution (HBSS).
(§2) To 100 μl of 500-1000 U/ml of TNF was added 10 μl of peptide and after 5 min 100 μl of 1×10^7 neutrophils/ml was added. The cells further incubated at 37° C. /20 min and then tested for chemiluminescence activity. In some cases an agonist such as fMLP (10^-7 M) was added. Chemiluminescence was measured in a luminometer (LKB). The results for Peptide T are presented in FIG. 12 as peak rate of CL release. Lucigenin-dependent chemiluminescence was measured: this represents superoxide measurement. In another set of experiments the effects of analogue 505 on the LPS-induced neutrophil chemiluminescence were examined. In this case the LPS was essentially substituted for the TNF. The concentration of LPS was 0.005 μg/ml.

Series [6] concerns human neutrophils. The series is described as follows: LPS-induced neutrophil chemiluminescence. In kind it is cell-based. The settings on record: LPS 0.005 μg/ml; FIG. 14. The procedure: as §1, §2

Results on three compounds are retold here after US6011014A, “Peptide T and related peptides in the treatment of inflammation, including multiple sclerosis” (Advanced Immunit, Inc., priority 1998, dated 2000).

Square brackets hold non-standard residues; d marks the D form. Peptide text beside a SMILES is read from it.

Regarding `C[C@@H](N)C(=O)N[C@@H](CO)C(=O)N[C@H](C(=O)N[C@H](C(=O)N[C@H](C(=O)N[C@@H](CC(N)=O)C(=O)N[C@@H](Cc1ccc(O)cc1)C(=O)N[C@H](C(N)=O)[C@@H](C)O)[C@@H](C)O)[C@@H](C)O)[C@@H](C)O` [Peptide T, D-Ala-Ser-Thr-Thr-Thr-Asn-Tyr-Thr-Amide], the peak plasma concentrations in series [1] was found to be 55 nM. Further, in series [2], the “side effects attributable to Peptide T therapy” value was “no significant side effects”. For the same compound, the “cytotoxicity for responding lymphocytes” value with PBMC is listed as “not cytotoxic”. The “cytotoxicity of activated MO/MAC” value in series [3] is recorded as “inhibit the cytotoxicity”.
With `C[C@H](O)[C@@H](NC(=O)[C@H](Cc1ccc(O)cc1)NC(=O)[C@@H](NC(=O)[C@H](NC(=O)[C@@H](NC(=O)[C@H](NC(=O)[C@H](CO)NC(=O)[C@H](N)CO)[C@H](C)O)[C@@H](C)O)[C@H](C)O)[C@@H](C)O)C(N)=O` [compound 505, H-D-Ser-Ser-D-Thr-Thr-D-Thr-Thr-Tyr-D-Thr-NH2] (H-[dS]S[dT]T[dT]TY[dT]-NH2), in series [4], the “% mice surviving 41 hours” value was found to be 100%, the “% mice with diarrhoea at 19 hrs” value was determined as 40% and the “% mice with exudate at 19 hrs” value was 20%. In addition, the “TNF priming and activation of human neutrophils (chemiluminescence)” value in the series on human neutrophils [5] was “inhibits TNF priming and activation of human neutrophils”. The “LPS activation of human neutrophils (chemiluminescence)” value in the series with human neutrophils [6] is “inhibits LPS activation of human neutrophils”.
Take `C[C@H](O)[C@@H](NC(=O)[C@H](Cc1ccc(O)cc1)NC(=O)[C@H](CC(N)=O)NC(=O)[C@H](NC(=O)[C@@H](NC(=O)[C@H](NC(=O)[C@H](CO)NC(=O)[C@@H](C)N)[C@H](C)O)[C@@H](C)O)[C@H](C)O)C(N)=O` [compound 504, H-D-Ala-Ser-D-Thr-Thr-D-Thr-Asn-Tyr-D-Thr-NH2]: in series [4], the “% mice surviving 41 hours” value was 100%, the “% mice with diarrhoea at 19 hrs” value came out at 40% and the “% mice with exudate at 19 hrs” value was 60%.
